Test results published in ChEMBL document CHEMBL5614440, “Development of Novel Indole-Based Covalent Inhibitors of TEAD as Potential Antiliver Cancer Agents” (J Med Chem, 2024).
pIC50: −log10 of the molar value. Activity calls are given as the source filed them. The rule behind the calls is not given here.

Assays:
HEK293T = assay: Inhibition of TEAD (unknown origin) expressed in HEK293T cells transfected with 8xGTIIC-luciferase at 10 uM by dual luciferase reporter assay relative to control; assay type: cell-based; conditions: Homo sapiens
Huh-7 [1] = assay: Antiproliferative activity against human Huh-7 cells incubated for 3 days by CCK8 assay; assay type: functional, cell-based; conditions: Huh-7, 72 h
NCI-H226 [2] = assay: Disruption of TAZ to TEAD protein-protein interaction in human NCI-H226 cells at 1 to 2.5 uM incubated for 24 hrs by Coimmunoprecipitation method; assay type: cell-based; conditions: dose 1-2.5 µM
Mus musculus [3] = assay: In vivo inhibition of TEAD transcription in NSG mouse xenografted with human Huh-7 cells assessed as decrease in CTGF expression at 50 mg/kg, ip administered every 3 days for 24 days by Western blotting analysis; assay type: functional, organism-based; conditions: time 24.0 day
HepG2 [4] = assay: Induction of cell cycle arrest in human HepG2 cells assessed as accumulation of G1 phase cells at 5 to 10 uM incubated for 48 hrs by propidium iodide staining based flow cytometry; assay type: functional; conditions: dose 5-10 µM
HepG2 [5] = assay: Induction of apoptosis in human HepG2 cells assessed as total apoptotic cells at 10 uM incubated for 48 hrs by Annexin V/PI staining based flow cytometry analysis; assay type: functional
Huh-7 [6] = assay: Induction of apoptosis in human Huh-7 cells assessed as total apoptotic cells at 10 uM incubated for 48 hrs by Annexin V/PI staining based flow cytometry analysis; assay type: functional
Huh-7 [7] = assay: Induction of cell cycle arrest in human Huh-7 cells assessed as increase in G1 phase cells at 5 to 10 uM incubated for 48 hrs by propidium iodide staining based flow cytometry (reference value: 36.4%); assay type: functional; conditions: dose 5-10 µM
HepG2 [8] = assay: Antiproliferative activity against human HepG2 cells incubated for 3 days by CCK8 assay; assay type: functional, cell-based; conditions: HepG2, 72 h
Mus musculus [9] = assay: Downregulation of Cyr61 protein expression in C57BL/6 mouse hepatoblastoma tumor at 25 mg/kg, ip administered twice a week for 9 weeks and measured after 2 days post last drug treatment by Western blotting analysis; assay type: functional, organism-based; conditions: time 65.0 day
Mus musculus [10] = assay: Downregulation of CTGF protein expression in C57BL/6 mouse hepatoblastoma tumor at 25 mg/kg, ip administered twice a week for 9 weeks and measured after 2 days post last drug treatment by Western blotting analysis; assay type: functional, organism-based; conditions: time 65.0 day
Mus musculus [11] = assay: In vivo inhibition of TEAD transcription in NSG mouse xenografted with human Huh-7 cells assessed as decrease in CYR61 expression at 50 mg/kg, ip administered every 3 days for 24 days by Western blotting analysis; assay type: functional, organism-based; conditions: time 24.0 day
[12] = MRTinfinity in Sprague-Dawley rat at 50 mg/kg, ip measured upto 24 hrs by LC-MS/MS analysis; assay type: ADME, organism-based; conditions: in vivo
Huh-7 [13] = assay: Antitumor activity against human Huh-7 cells xenografted in NSG mouse assessed as tumor growth inhibition at 50 mg/kg, ip administered every 3 days for 24 days and measured every 3 days; assay type: functional; conditions: Huh-7, 576 h, time 24 day, read-out: TGI
NCI-H2452 = assay: Antiproliferative activity against human NCI-H2452 cells incubated for 3 days by CCK8 assay; assay type: functional, cell-based; conditions: NCI-H2452, 72 h
Mus musculus [14] = assay: Downregulation of CTGF mRNA expression in C57BL/6 mouse hepatoblastoma tumor at 25 mg/kg, ip administered twice a week for 9 weeks and measured after 2 days post last drug treatment by qRT-PCR analysis; assay type: functional, organism-based; conditions: time 65.0 day
Huh-7 [15] = assay: Induction of cell cycle arrest in human Huh-7 cells assessed as decrease in S phase cells at 5 to 10 uM incubated for 48 hrs by propidium iodide staining based flow cytometry; assay type: functional; conditions: dose 5-10 µM
[16] = target: Transcriptional enhancer factor TEF-4 (Homo sapiens) (UniProt Q15562); assay: Covalent binding affinity to human TEAD2-YBD (217 to 447 residues) assessed as change in protein mass at 50 uM incubated for 15 hrs by mass spectrometry analysis
HepG2 [17] = assay: Inhibition of TEAD transcription in human HepG2 cells assessed as downregulation of CTGF mRNA expression incubated for 24 hrs by RT-PCR analysis; assay type: cell-based
Mus musculus [18] = assay: Downregulation of Cyr61 mRNA expression in C57BL/6 mouse hepatoblastoma tumor at 25 mg/kg, ip administered twice a week for 9 weeks and measured after 2 days post last drug treatment by qRT-PCR analysis; assay type: functional, organism-based; conditions: time 65.0 day
[19] = Half life in Sprague-Dawley rat at 50 mg/kg, ip measured upto 24 hrs by LC-MS/MS analysis; assay type: ADME, organism-based; conditions: in vivo
NCI-H226 [20] = assay: Disruption of YAP to TEAD protein-protein interaction in human NCI-H226 cells at 2.5 uM incubated for 24 hrs by Coimmunoprecipitation method; assay type: cell-based
Mus musculus [21] = assay: Downregulation of Afp mRNA expression in C57BL/6 mouse hepatoblastoma tumor at 25 mg/kg, ip administered twice a week for 9 weeks and measured after 2 days post last drug treatment by qRT-PCR analysis; assay type: functional, organism-based; conditions: time 65.0 day
[22] = AUCinfinity in Sprague-Dawley rat at 50 mg/kg, ip measured upto 24 hrs by LC-MS/MS analysis; assay type: ADME, organism-based; conditions: in vivo
[23] = (§1) Inhibition of TEAD transcription in human Huh-7 cells transfected with 8xGTIIC-luciferase by dual luciferase reporter assay; assay type: cell-based
Huh-7 [24] = assay: as §1; assay type: cell-based
[25] = Cmax in Sprague-Dawley rat at 50 mg/kg, ip measured upto 24 hrs by LC-MS/MS analysis; assay type: ADME, organism-based; conditions: in vivo
NCI-H226 [26] = assay: Antiproliferative activity against human NCI-H226 cells incubated for 3 days by CCK8 assay; assay type: functional, cell-based; conditions: NCI-H226, 72 h
Huh-7 [27] = assay: Inhibition of TEAD transcription in human Huh-7 cells transfected with 8xGTIIC-luciferase assessed as downregulation of CTGF protein expression by Western blotting analysis; assay type: cell-based; conditions: dose 1.25-15 µM
[28] = Toxicity in NSG mouse assessed as change in body weight at 50 mg/kg, ip administered every 3 days for 24 days in presence of sorafenib and measured every 3 days; assay type: organism-based; conditions: in vivo, 576 h, time 24 day
Hepatoblastoma cell line [29] = assay: Antitumor activity against C57BL/6 mouse hepatoblastoma assessed as reduction in number of proliferating cells at 25 mg/kg, ip administered twice a week for 9 weeks and measured after 2 days post last drug treatment by Ki67 staining based immunohistochemistry assay; assay type: functional, organism-based; conditions: time 65.0 day
Mus musculus [30] = assay: Downregulation of Ccnd1 mRNA expression in C57BL/6 mouse hepatoblastoma tumor at 25 mg/kg, ip administered twice a week for 9 weeks and measured after 2 days post last drug treatment by qRT-PCR analysis; assay type: functional, organism-based; conditions: time 65.0 day
[31] = AUClast in Sprague-Dawley rat at 50 mg/kg, ip measured upto 24 hrs by LC-MS/MS analysis; assay type: ADME, organism-based; conditions: in vivo
NCI-H226 [32] = assay: Disruption of YAP to TEAD protein-protein interaction in human NCI-H226 cells at 1 uM incubated for 24 hrs by Coimmunoprecipitation method; assay type: cell-based
Huh-7 [33] = assay: Induction of apoptosis in human Huh-7 cells assessed as total apoptotic cells at 5 uM incubated for 48 hrs by Annexin V/PI staining based flow cytometry analysis; assay type: functional
HepG2 [34] = assay: Inhibition of TEAD transcription in human HepG2 cells assessed as downregulation of CYR61 mRNA expression incubated for 24 hrs by RT-PCR analysis; assay type: cell-based; conditions: dose 0.5-15 µM
Huh-7 [35] = assay: Induction of cell cycle arrest in human Huh-7 cells assessed as decrease in G2 phase cells at 5 to 10 uM incubated for 48 hrs by propidium iodide staining based flow cytometry; assay type: functional; conditions: dose 5-10 µM
Homo sapiens = species on record: Homo sapiens; assay: Covalent binding affinity to human TEAD2-YBD C380S mutant variant assessed as change in protein mass at 50 uM incubated for 15 hrs by mass spectrometry analysis
Hepatoblastoma cell line [36] = assay: Antitumor activity against C57BL/6 mouse hepatoblastoma assessed as reduction in tumor occurrence at 25 mg/kg, ip administered twice a week for 9 weeks and measured after 2 days post last drug treatment; assay type: functional, organism-based; conditions: time 65.0 day
Hs-578T = assay: Antiproliferative activity against human Hs-578T cells incubated for 3 days by CCK8 assay; assay type: functional, cell-based; conditions: 72 h
[37] = Tmax in Sprague-Dawley rat at 50 mg/kg, ip measured upto 24 hrs by LC-MS/MS analysis; assay type: ADME, organism-based; conditions: in vivo
Mus musculus [38] = assay: Downregulation of Gpc3 mRNA expression in C57BL/6 mouse hepatoblastoma tumor at 25 mg/kg, ip administered twice a week for 9 weeks and measured after 2 days post last drug treatment by qRT-PCR analysis; assay type: functional, organism-based; conditions: time 65.0 day
Huh-7 [39] = assay: Antitumor activity against human Huh-7 cells xenografted in NSG mouse assessed as tumor growth inhibition at 50 mg/kg, ip administered every 3 days for 24 days in presence of sorafenib and measured every 3 days; assay type: functional; conditions: Huh-7, 576 h, time 24 day, read-out: TGI
Hepatoblastoma cell line [40] = assay: Antitumor activity against C57BL/6 mouse hepatoblastoma assessed as reduction in tumor size at 25 mg/kg, ip administered twice a week for 9 weeks and measured after 2 days post last drug treatment; assay type: functional, organism-based; conditions: time 65.0 day
Huh-7 [41] = assay: Inhibition of TEAD transcription in human Huh-7 cells transfected with 8xGTIIC-luciferase assessed as downregulation of CYR61 mRNA expression incubated for 24 hrs by RT-PCR analysis; assay type: cell-based; conditions: dose 0.5-15 µM

Sequence of Transcriptional enhancer factor TEF-4 (Homo sapiens) (Q15562 whole entry, the tested form may be a part): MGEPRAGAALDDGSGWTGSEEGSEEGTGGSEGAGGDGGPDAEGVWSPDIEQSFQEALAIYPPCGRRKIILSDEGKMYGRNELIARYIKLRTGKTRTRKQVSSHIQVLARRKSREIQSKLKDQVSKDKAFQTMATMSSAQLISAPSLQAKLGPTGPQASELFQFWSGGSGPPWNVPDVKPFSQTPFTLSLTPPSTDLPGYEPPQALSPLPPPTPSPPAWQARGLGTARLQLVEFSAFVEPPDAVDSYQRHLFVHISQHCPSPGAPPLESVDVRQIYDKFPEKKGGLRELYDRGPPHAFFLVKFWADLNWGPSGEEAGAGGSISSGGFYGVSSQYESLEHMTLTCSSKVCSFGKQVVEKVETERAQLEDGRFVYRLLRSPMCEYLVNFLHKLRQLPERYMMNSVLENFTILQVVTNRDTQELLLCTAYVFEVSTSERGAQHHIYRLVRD

SMILES: O=C(CCl)NCc1c[nH]c2cc(Cl)c(OCc3cccc4ccccc34)cc12
- inhibition (HEK293T): 81.5%
- pIC50 (Huh-7 [1]): 6.10

SMILES: O=C(CCl)NCc1c[nH]c2cc(Cl)c(OCc3cccc(C(F)(F)F)c3)cc12
- inhibition (HEK293T): 47.9%
- pIC50 (Huh-7 [1]): 5.08

SMILES: O=C(CCl)c1c[nH]c2ccc(OCc3ccccc3)cc12
- inhibition (HEK293T): 20.5%
- pIC50 (Huh-7 [1]): 4.98

SMILES: N#C/C(=C\c1c[nH]c2cc(Cl)c(OCc3ccc4ccccc4n3)cc12)C(N)=O
- pIC50 (Huh-7 [1]): 4.16

SMILES: O=C(CCl)c1c[nH]c2cc(Cl)c(OCc3cccc4ccccc34)cc12
- inhibition (HEK293T): 69.4%
- pIC50 (Huh-7 [1]): 5.80

SMILES: O=C(CCl)c1c[nH]c2cc(Cl)c(OCc3ccc(C(F)(F)F)c(F)c3)cc12
- pIC50 (Huh-7 [1]): 5.74

SMILES: O=C(CCl)NCc1c[nH]c2cc(Cl)c(OCc3ccc4ccccc4c3)cc12
- inhibition (HEK293T): 67.4%
- pIC50 (Huh-7 [1]): 5.24

SMILES: COc1cc2[nH]cc(C(=O)CCl)c2cc1OCc1ccc2ccccc2c1
- inhibition (HEK293T): 93.9%
- pIC50 (Huh-7 [1]): 5.62

SMILES: C=C(CN(C)C)C(=O)NCc1c[nH]c2cc(Cl)c(OCc3ccccc3)cc12
- inhibition (HEK293T): 71.8%
- pIC50 (Huh-7 [1]): 5.70

SMILES: COc1cc2[nH]cc(C(=O)CCl)c2cc1OCc1cccc2ccccc12
- inhibition (HEK293T): 64.5%
- pIC50 (Huh-7 [1]): 5.60

SMILES: O=C(CCl)c1c[nH]c2ccc(OCc3ccc4ccccc4c3)cc12
- inhibition (HEK293T): 5.3%
- pIC50 (Huh-7 [1]): < 4.70

SMILES: O=C(CCl)c1c[nH]c2cc(Cl)c(OCc3cccc(C(F)(F)F)c3)cc12
- Activity (NCI-H226 [2]): inactive
- inhibition (Mus musculus [3]): Active
- Activity (HepG2 [4]): Active
- Activity (HepG2 [5]): 69%
- Activity (Huh-7 [6]): 83.5%
- Activity (Huh-7 [7]): 58.2%
- pIC50 (HepG2 [8]): 5.62
- Activity (Mus musculus [9]): Active
- Activity (Mus musculus [10]): Active
- inhibition (Mus musculus [11]): Active
- MRT inf [12]: 9.65 h
- inhibition in vivo at 50 mg/kg (Huh-7 [13]): 75%
- pIC50 (NCI-H2452): 4.96
- Activity (Mus musculus [14]): Active
- Activity (Huh-7 [15]): Active
- Activity [16]: Active
- inhibition (HepG2 [17]): Dose-Dependent Effect
- inhibition (HEK293T): 93.6%
- Activity (Mus musculus [18]): Active
- half-life [19]: 6.49 h
- Activity (NCI-H226 [20]): 100%
- Activity (Mus musculus [21]): Active
- pIC50 (Huh-7 [1]): 6.05
- AUC(0-inf) [22]: 208 ng·h/mL
- pIC50 [23]: 6.20
- inhibition (Huh-7 [24]): Dose-Dependent Effect
- Cmax [25]: 28 ng/mL
- pIC50 (NCI-H226 [26]): 6.40
- inhibition (Huh-7 [27]): Dose-Dependent Effect
- Activity [28]: Non-Toxic
- Activity (Hepatoblastoma cell line [29]): Active
- Activity (Mus musculus [30]): Active
- AUC(0-t) at 24 h [31]: 175 ng·h/mL
- Activity (NCI-H226 [32]): Active
- Activity (Huh-7 [33]): 66.8%
- inhibition (HepG2 [34]): Dose-Dependent Effect
- Activity (Huh-7 [35]): Active
- Activity (Homo sapiens): inactive
- Activity (Hepatoblastoma cell line [36]): Active
- pIC50 (Hs-578T): 5.59
- Tmax [37]: 2.67 h
- Activity (Mus musculus [38]): Active
- inhibition in vivo at 50 mg/kg (Huh-7 [39]): 93%
- Activity (Hepatoblastoma cell line [40]): Active
- inhibition (Huh-7 [41]): Dose-Dependent Effect

SMILES: N#C/C(=C\c1c[nH]c2cc(Cl)c(OCc3ccccc3)cc12)C(N)=O
- pIC50 (Huh-7 [1]): < 4.30
